The values that follow come from patent US8658570B2, “Use of anthranilamide derivatives for controlling insects and spider mites by drenching, soil mixing, furrow treatment, drip application, soil, stem or flower injection, in hydroponic systems, by planting hole treatment or dip application, floating or seedbox application or by treating seed, and …” (Bayer Cropscience AG, priority 2010, dated 2014).

Each structure is given as a SMILES string.

Common to all, as to format: in vivo
Test [1] concerns Spodoptera frugiperda. Nature of the test: Spodoptera frugiperda test on maize; drench application (Example B-1). Conditions: soil, 336 h, mortality 14 days after treatment, read-out: % Activity (according to Abbott). As to the method:
Spodoptera fugiperda Test on Maize; […] Application • Solvent: 7 parts by weight of dimethylformamide • Emulsifier: 1 part by weight of alkylaryl polyglycol ether To produce a suitable preparation of active compound, 1 part by weight of active compound is mixed with the stated amounts of solvent and emulsifier, and the concentrate is diluted with water to the desired concentration. Maize plants (Zea mays) are watered with a solution of the product in question and infested with the armyworm (Spadoptera frugiperda). After 14 days, the activity in % is determined. 100% means that all caterpillars have been killed; 0% means that none of the caterpillars have been killed.

The test system of the next test is Diabrotica balteata. Nature of the test: Diabrotica balteata test on maize; drench application. The conditions noted are these: soil, 192 h, mortality 8 days after treatment, mixtures about 95%/5%, read-out: % Activity (according to Abbott). The protocol: Diabrotica balteata Test on Maize; Drench Application • Solvent: 7 parts by weight of dimethylformamide • Emulsifier: 1 part by weight of alkylaryl polyglycol ether To produce a suitable preparation of active compound, 1 part by weight of active compound is mixed with the stated amounts of solvent and emulsifier, and the concentrate is diluted with water to the desired concentration. Maize plants (Zea mays) are watered with the solution of the product in question and infested with larvae of the banded cucumber beetle (Diabrotica baltenta). After 8 days, the activity in % is determined. 100% means that all caterpillars have been killed; 0% means that none of the caterpillars have been killed.

The next test deals with Myzus persicae. As to the kind of experiment: Myzus persicae test on Savoy cabbage; drench application. The conditions noted are these: soil, 240 h, mortality 10 days after treatment, mixtures about 85%/15% and 84%/15%, read-out: % Activity (according to Abbott). The protocol: Myzus persicae Test on Savoy Cabbage; Drench Application • Solvent: 7 parts by weight of dimethylformamide • Emulsifier: part by weight of alkylaryl polyglycol ether To produce a suitable preparation of active compound, 1 part by weight of active compound is mixed with the stated amounts of solvent and emulsifier, and the concentrate is diluted with water to the desired concentration. Savoy cabbage (Brassica oleracea) heavily infested by the green peach aphid (Myzus persicae) is watered with a solution of the product of the desired concentration. After 10 days, the activity in % is determined. 100% means that all of the aphids have been killed: 0% means that none of the aphids have been killed.

In the next test the test system is Plutella xylostella. Nature of the test: Plutella xylostella test on Savoy cabbage; drench application. The conditions noted are these: soil, 168 h, mortality 7 days after infestation, read-out: % Activity (according to Abbott); for pest or weed control at 0.5 mg/plant: 0.5 mg of ai/plant; for pest or weed control at 1 mg/plant: 1 mg of ai/plant. As to the method:
Plutella xylostella test on Savoy Cabbage; Drench Application
(§1) • Solvent: 4 parts by weight of acetone • Emulsifier: 1 part by weight of alkylaryl polyglycol ether
(§2) To produce a suitable preparation of active compound, 1 part by weight of active compound is mixed with the stated amounts of solvent and emulsifier, and the concentrate is diluted with water to the desired concentration. Savoy cabbage (Brassica oleracea) is watered with a solution of the product in question (volume of water: 60 ml/plant). The stated concentration refers to the amount of active compound per plant. After about 1 week, the treated plants are infested with larvae of the diamondback moth (Plutella xylostella). After 1 week, the activity in % is determined. 100% means that all caterpillars have been killed; 0% means that none of the caterpillars have been killed.

Test [2] relates to Spodoptera frugiperda. As to the kind of experiment: Spodoptera frugiperda test on maize; drench application (Example B). The conditions noted are these: soil, 168 h, mortality 7 days after infestation, read-out: % Activity (according to Abbott); for pest or weed control at 0.5 mg/plant: 0.5 mg of ai/plant; for pest or weed control at 1 mg/plant: 1 mg of ai/plant. The protocol:
Spodoptera frugiperda Test on Maize; Drench Application
as §1
as §2, with “Maize plants (Zea mays) are” for “Savoy cabbage (Brassica oleracea) is”, “50” for “60”, “with” for “with larvae of”, “armyworm (Spodoptera frugiperda).” for “diamondback moth (Plutella xylostella).”

The next test deals with Heliothis armigera. Nature of the test: Heliothis armigera test on cotton; drench application. Conditions: Helicoverpa armigera, soil, 168 h, mortality 7 days after infestation, read-out: % Activity (according to Abbott); for pest or weed control at 0.5 mg/plant: 0.5 mg of ai/plant; for pest or weed control at 1 mg/plant: 1 mg of ai/plant. The protocol: Heliothis armigera Test on Cotton; Drench Application
as §1
as §2, with “Cotton plants (Gossypium hirsuium) are” for “Savoy cabbage (Brassica oleracea) is”, “50” for “60”, “cotton bollworm (Heliothis armigera).” for “diamondback moth (Plutella xylostella).”

For the compound `CNC(=O)c1cc(C#N)cc(C)c1NC(=O)c1cc(Cn2nnc(C(F)(F)F)n2)nn1-c1ncccc1Cl` [(I-1-1)], the inhibition at 20 ppm with Spodoptera frugiperda [1] and in the test on Diabrotica balteata was 100% in each case.
As to `Cc1cc(C#N)cc(C(=O)NC(C)(C)C)c1NC(=O)c1cc(Cn2nnc(C(F)(F)F)n2)nn1-c1ncccc1Cl` [(I-1-2)], the inhibition at 20 ppm with Spodoptera frugiperda [1] was found to be 100%.
For the compound `CCNC(=O)c1cc(C#N)cc(C)c1NC(=O)c1cc(Cn2nnc(C(F)(F)F)n2)nn1-c1ncccc1Cl` [(I-1-3)], in the test with Myzus persicae, the inhibition at 20 ppm turned out to be 90%. The pest or weed control at 0.5 mg/plant in the test with Plutella xylostella, in the test on Spodoptera frugiperda [2] and in the test with Heliothis armigera was 100% each time.
With `CNC(=O)c1cc(F)cc(C)c1NC(=O)c1cc(Cn2nnc(C(F)(F)F)n2)nn1-c1ncccc1Cl` [(I-1-61)], the pest or weed control at 0.5 mg/plant with Plutella xylostella, with Spodoptera frugiperda [2] and in the test on Heliothis armigera was 100% each time.
As to `CNC(=O)c1cc(C#N)cc(C)c1NC(=O)c1cc(Cn2nnc(C(F)(F)F)n2)nn1-c1ncccc1Br` [(I-1-62)], the inhibition at 20 ppm came to 80% in the test with Myzus persicae and 100% in the test with Diabrotica balteata. Further, the values for the pest or weed control at 0.5 mg/plant with Plutella xylostella, in the test on Spodoptera frugiperda [2] and in the test with Heliothis armigera were 100%, 98% and 95%, respectively.
Regarding `Cc1cc(C#N)cc(C(=O)NC(C)(C)C)c1NC(=O)c1cc(Cn2nnc(C(F)(F)F)n2)nn1-c1ncccc1Cl` [(I-1-63)], the pest or weed control at 0.5 mg/plant in the test on Plutella xylostella, in the test with Spodoptera frugiperda [2] and with Heliothis armigera was 100% each time.
Consider `CNC(=O)c1cc(Br)cc(C)c1NC(=O)c1cc(Cn2nnc(C(F)(F)F)n2)nn1-c1ncccc1Cl` [(I-1-64)], for which the pest or weed control at 0.5 mg/plant in the test with Plutella xylostella, in the test on Spodoptera frugiperda [2] and in the test on Heliothis armigera was 100% each time.
As to `Cc1cc(C#N)cc(C(=O)NC(C)(C)C)c1NC(=O)c1cc(Cn2nnc(C(F)(F)F)n2)nn1-c1ncccc1Br` [(I-1-65)], the pest or weed control at 1 mg/plant amounted to 100% in the test with Plutella xylostella, 95% in the test on Spodoptera frugiperda [2] and 100% in the test on Heliothis armigera.
For `CNC(=O)c1cc(C#N)cc(C)c1NC(=O)c1cc(Cn2nnc(C(F)(F)F)n2)nn1-c1c(F)cccc1Cl` [(I-1-66)], the inhibition at 20 ppm with Myzus persicae and in the test on Diabrotica balteata was 90% each time. Moreover, the pest or weed control at 1 mg/plant with Plutella xylostella amounted to 90%; with Spodoptera frugiperda [2] it was 95%; in the test on Heliothis armigera, 100%.
In the case of `Cc1cc(C#N)cc(C(=O)NC(C)C)c1NC(=O)c1cc(Cn2nnc(C(F)(F)F)n2)nn1-c1ncccc1Br` [(I-1-67)], the figures for the pest or weed control at 1 mg/plant in the test on Plutella xylostella, with Spodoptera frugiperda [2] and in the test on Heliothis armigera were 100%, 90% and 100%, respectively.
As to `Cc1cc(Br)cc(C(=O)NCC#N)c1NC(=O)c1cc(Cn2nnc(C(F)(F)F)n2)nn1-c1ncccc1Cl` [(I-1-68)], the pest or weed control at 0.5 mg/plant in the test with Plutella xylostella, with Spodoptera frugiperda [2] and with Heliothis armigera was 100% each time. Further, the inhibition at 20 ppm in the test on Diabrotica balteata was 100%.
For the compound `CNC(=O)c1cc(I)cc(C)c1NC(=O)c1cc(Cn2nnc(C(F)(F)F)n2)nn1-c1ncccc1Cl` [(I-1-69)], the pest or weed control at 0.5 mg/plant turned out to be 100% in the test with Plutella xylostella, 85% with Spodoptera frugiperda [2] and 100% in the test with Heliothis armigera. Moreover, the inhibition at 20 ppm in the test on Diabrotica balteata is 100%.
`Cc1cc(C#N)cc(C(=O)NC(C)(C)C)c1NC(=O)c1cc(Cn2nnc(C(F)(F)F)n2)nn1-c1ncccc1F` [(I-1-70)]: the pest or weed control at 1 mg/plant was determined as 100% in the test with Plutella xylostella, 90% in the test on Spodoptera frugiperda [2] and 95% in the test on Heliothis armigera.
Take `Cc1cc(C#N)cc(C(=O)NC(C)(C)C)c1NC(=O)c1cc(Cn2nnc(C3CC3)n2)nn1-c1ncccc1Cl` [(I-1-71)]: the pest or weed control at 0.5 mg/plant stood at 90% with Plutella xylostella and 85% in the test with Spodoptera frugiperda [2].
